Data from patent US20230124862A1, “BISMUTH THIOL COMPOUNDS AND COMPOSITIONS AND METHODS OF TREATING MICROBIAL CO-INFECTIONS” (Microbion Corporation, priority 2020, published 2023).

Assay: Particle size distribution of BisEDT samples vs processing conditions
Type: physicochemical
[1] = particle size distribution of BisEDT samples

SMILES	D(10) (crystalline BisEDT samples) [μm]	D(50) (crystalline BisEDT samples) [μm]	D(90) (crystalline BisEDT samples) [μm]	D[4, 3] (crystalline BisEDT samples) [μm]	D(10) [1] [μm]	D(50) [1] [μm]	D(90) [1] [μm]	D[4, 3] [1] [μm]
C1C[S][Bi]([S]CC[S][Bi]2[S]CC[S]2)[S]1 [Sample 1]	0.80	2.4	5.9	2.9	0.80	2.4	5.9	2.9
C1C[S][Bi]([S]CC[S][Bi]2[S]CC[S]2)[S]1 [Sample 2]	0.58	1.7	3.9	2.0	0.58	1.7	3.9	2.0
C1C[S][Bi]([S]CC[S][Bi]2[S]CC[S]2)[S]1 [Sample 3]	0.59	1.9	4.5	2.3	0.59	1.9	4.5	2.3
C1C[S][Bi]([S]CC[S][Bi]2[S]CC[S]2)[S]1 [Sample 4]	0.44	1.48	3.1	1.7	0.44	1.48	3.1	1.7
C1C[S][Bi]([S]CC[S][Bi]2[S]CC[S]2)[S]1 [Sample 5]	0.33	0.72	1.6	0.86	0.33	0.72	1.6	0.86
C1C[S][Bi]([S]CC[S][Bi]2[S]CC[S]2)[S]1 [Sample 6]	0.34	0.87	1.8	0.98	0.34	0.87	1.8	0.98
C1C[S][Bi]([S]CC[S][Bi]2[S]CC[S]2)[S]1 [Sample 7]	0.39	1.3	1.6	1.4	0.39	1.3	1.6	1.4
C1C[S][Bi]([S]CC[S][Bi]2[S]CC[S]2)[S]1 [Sample 8]	0.36	1.0	1.8	1.0	0.36	1.0	1.8	1.0
C1C[S][Bi]([S]CC[S][Bi]2[S]CC[S]2)[S]1 [Sample 9]	0.67	1.0	1.9	1.1	0.67	1.0	1.9	1.1
C1C[S][Bi]([S]CC[S][Bi]2[S]CC[S]2)[S]1 [Sample 10]	0.36	0.88	1.7	0.97	0.36	0.88	1.7	0.97
C1C[S][Bi]([S]CC[S][Bi]2[S]CC[S]2)[S]1 [Sample 11]	0.38	1.2	2.4	1.4	0.38	1.2	2.4	1.4
C1C[S][Bi]([S]CC[S][Bi]2[S]CC[S]2)[S]1 [Sample 12]	0.37	1.2	2.4	1.3	0.37	1.2	2.4	1.3
C1C[S][Bi]([S]CC[S][Bi]2[S]CC[S]2)[S]1 [Sample 13]	0.36	0.98	2.1	1.2	0.36	0.98	2.1	1.2
C1C[S][Bi]([S]CC[S][Bi]2[S]CC[S]2)[S]1 [Sample 14]	0.36	1.0	2.1	1.2	0.36	1.0	2.1	1.2
C1C[S][Bi]([S]CC[S][Bi]2[S]CC[S]2)[S]1 [Sample 15]	0.32	0.72	1.6	0.86	0.32	0.72	1.6	0.86
